{"source": "patent US20240252454A1", "about": "“COMPOSITION COMPRISING AN INHIBITOR OF MITOCHONDRIAL TRANSCRIPTION” (LEAD DISCOVERY CENTER GMBH, priority 2021, published 2024)", "assay_in_all_cases": "CellTiter-GLO (CTG) assay, combinatorial matrix", "assay_type_in_all_cases": "cell-based", "key": {"A2780": {"tested_on": "A2780", "details": "for combination of IMT and PARPi compared to treatment with just the PARPi alone: A2780, CTG matrix, 30 μM to 10 nM IMT (3S)-1-[(2R)-2-[4-(2-chloro-4-fluoro-phenyl)-2-oxo-chromen-7-yl]oxypropanoyl]piperidine-3-carboxylic acid + 30 μM to 40 nM of the labelled PARPi; for activity at 0.04 µM / activity at 0.1 µM / activity at 0.4 µM / activity at 1.1 µM / activity at […] / activity at 10 µM / activity at 30 µM: Homo sapiens, read-out: Measured residual activity (cellular ATP content); for activity at 0.04 µM / activity at 0.1 µM / activity at 0.4 µM / activity at 1.1 µM / activity at […] / activity at 10 µM / activity at 30 µM / Measured residual activity (cellular ATP content): A2780, 72 hours, untreated control =100%", "description": "(§1) To determine the in vitro cellular viability, cellular ATP concentrations were measured using a luminescence-based homogenous assay format, as described here. […] Optimal cell density for each cell line was determined to guarantee linearity. For viability assays with compounds, cells were then seeded at a density of 200 to 1000 per well in 25 μl in 384-well plates (Greiner Bio-One, Frickenhausen, Germany). After overnight incubation at 37° C./5% CO2, 25 nl or 75 nl compounds were added to each sample well by using BIOMEK FXP Laboratory Automation Workstation (Beckman Coulter, USA). Wells with cells and 0.1% or 0.3% DMSO in culture medium were used as positive controls, wells with cells and 10 μM staurosporine (Selleck Chemicals, Huston, USA) in culture medium were used as negative controls. Upon incubation with compounds for 72 h at 37° C./5% CO2 25 μl Cell Titer Glo reagent (Promega, Madison, USA, European Pat. No. 1131441, U.S. Pat. Nos. 7,083,911, 7,452,663 and 7,732,128) 1:2 diluted with cell culture medium) was added to each well to determine cell viability. 384well-plates were placed for 2 min on an orbital microplate shaker and incubated for further 10 min at room temperature resulting in a stabilization of light signal. Luminescence was measured by Envision Plate Reader (Perkin Elmer, USA).\n(§2) All in vitro cell culture experiments were carried out under near physiological glucose concentrations (5 mM) in at least two independent replicates."}, "[1]": {"tested_on": "primary human blood cells (PBMC)", "details": "hPBMCs, 72 hours, BAY-876 0 (IMT alone), IMT at the μM of c0, untreated control =100%", "description": "as §1, §2\n(§3) To establish the method described, N,N-dimethyl-2-[4-(o-tolyl)-2-oxo-chromen-7-yl]oxy-propanamide, (3S)-1-[2-[4-(2-chloro-4-fluoro-phenyl)-2-oxo-chromen-7-yl]oxypropanoyl]piperidine-3-carboxylic acid, (3S)-1-[(2R)-2-[4-(2-chloro-4-fluoro-phenyl)-2-oxo-chromen-7-yl]oxypropanoyl]piperidine-3-carboxylic acid and BAY-876 were first examined with regard to their effect on the cell growth of twelve different tumour cell lines and the IC50 values were determined. This initial study was followed by validation experiments in a matrix format and in the CTG assay, as described under Example 1), in two tumour cell lines from uterine and ovarian carcinoma (HEC59 and A2780), as well as in primary human blood cells (PBMC) (Table 7).\n(§4) Combinations of one concentration of IMT (μM; y-axis) and 30 μM-33 nM BAY-876 (x-axis) were incubated for 72 hours with HEC59, hPBMCs or A2780 and then the cellular ATP-content was determined using the CellTiter-GLO assay format. A: Measured residual activity (%) based on an untreated control group (=100%). B: The combinatorial indices are provided, based on the reference groups treated with the corresponding concentration of only one inhibitor class, according to Berenbaum and Cou & Talalay. <1=synergism, 1-2=additivity, 2>=antagonism."}, "HEC59": {"tested_on": "HEC59", "details": "HEC59, 72 hours, BAY-876 0 (IMT alone), IMT at the μM of c0, untreated control =100%", "description": "as §1, §2, §3, §4"}}, "note": "Like-named read-outs stand apart in the source and are kept apart here."}
{"smiles": "CNCc1ccc(-c2[nH]c3cc(F)cc4c3c2CCNC4=O)cc1", "note": "[Rucaparib]", "values": [{"measurement": "combination of IMT and PARPi compared to treatment with just the PARPi alone", "setting": "A2780", "result": "advantage of the combination"}, {"measurement": "activity at 0.04 µM", "setting": "A2780; Rucaparib 0.04 μM, IMT (3S)-1-[(2R)-2-[4-(2-chloro-4-fluoro-phenyl)-2-oxo-chromen-7-yl]oxypropanoyl]piperidine-3-carboxylic acid at the μM of c0", "result": 90, "unit": "%"}, {"measurement": "activity at 0.1 µM", "setting": "A2780; Rucaparib 0.1 μM, IMT (3S)-1-[(2R)-2-[4-(2-chloro-4-fluoro-phenyl)-2-oxo-chromen-7-yl]oxypropanoyl]piperidine-3-carboxylic acid at the μM of c0", "result": 70, "unit": "%"}, {"measurement": "activity at 0.4 µM", "setting": "A2780; Rucaparib 0.4 μM, IMT (3S)-1-[(2R)-2-[4-(2-chloro-4-fluoro-phenyl)-2-oxo-chromen-7-yl]oxypropanoyl]piperidine-3-carboxylic acid at the μM of c0", "result": 42, "unit": "%"}, {"measurement": "activity at 1.1 µM", "setting": "A2780; Rucaparib 1.1 μM, IMT (3S)-1-[(2R)-2-[4-(2-chloro-4-fluoro-phenyl)-2-oxo-chromen-7-yl]oxypropanoyl]piperidine-3-carboxylic acid at the μM of c0", "result": 21, "unit": "%"}, {"measurement": "activity at […]", "setting": "A2780; Rucaparib 3.3 μM, IMT (3S)-1-[(2R)-2-[4-(2-chloro-4-fluoro-phenyl)-2-oxo-chromen-7-yl]oxypropanoyl]piperidine-3-carboxylic acid at the μM of c0", "result": 6, "unit": "%"}, {"measurement": "activity at 10 µM", "setting": "A2780; Rucaparib 10 μM, IMT (3S)-1-[(2R)-2-[4-(2-chloro-4-fluoro-phenyl)-2-oxo-chromen-7-yl]oxypropanoyl]piperidine-3-carboxylic acid at the μM of c0", "result": 0, "unit": "%"}, {"measurement": "activity at 30 µM", "setting": "A2780; Rucaparib 30 μM, IMT (3S)-1-[(2R)-2-[4-(2-chloro-4-fluoro-phenyl)-2-oxo-chromen-7-yl]oxypropanoyl]piperidine-3-carboxylic acid at the μM of c0", "result": 0, "unit": "%"}]}
{"smiles": "C[C@]1(c2nc3c(C(N)=O)cccc3[nH]2)CCCN1", "note": "[Veliparib]", "values": [{"measurement": "combination of IMT and PARPi compared to treatment with just the PARPi alone", "setting": "A2780", "result": "advantage of the combination"}, {"measurement": "activity at 0.04 µM", "setting": "A2780; Veliparib 0.04 μM, IMT (3S)-1-[(2R)-2-[4-(2-chloro-4-fluoro-phenyl)-2-oxo-chromen-7-yl]oxypropanoyl]piperidine-3-carboxylic acid at the μM of c0", "result": 99, "unit": "%"}, {"measurement": "activity at 0.1 µM", "setting": "A2780; Veliparib 0.1 μM, IMT (3S)-1-[(2R)-2-[4-(2-chloro-4-fluoro-phenyl)-2-oxo-chromen-7-yl]oxypropanoyl]piperidine-3-carboxylic acid at the μM of c0", "result": 99, "unit": "%"}, {"measurement": "activity at 0.4 µM", "setting": "A2780; Veliparib 0.4 μM, IMT (3S)-1-[(2R)-2-[4-(2-chloro-4-fluoro-phenyl)-2-oxo-chromen-7-yl]oxypropanoyl]piperidine-3-carboxylic acid at the μM of c0", "result": 97, "unit": "%"}, {"measurement": "activity at 1.1 µM", "setting": "A2780; Veliparib 1.1 μM, IMT (3S)-1-[(2R)-2-[4-(2-chloro-4-fluoro-phenyl)-2-oxo-chromen-7-yl]oxypropanoyl]piperidine-3-carboxylic acid at the μM of c0", "result": 89, "unit": "%"}, {"measurement": "activity at […]", "setting": "A2780; Veliparib 3.3 μM, IMT (3S)-1-[(2R)-2-[4-(2-chloro-4-fluoro-phenyl)-2-oxo-chromen-7-yl]oxypropanoyl]piperidine-3-carboxylic acid at the μM of c0", "result": 85, "unit": "%"}, {"measurement": "activity at 10 µM", "setting": "A2780; Veliparib 10 μM, IMT (3S)-1-[(2R)-2-[4-(2-chloro-4-fluoro-phenyl)-2-oxo-chromen-7-yl]oxypropanoyl]piperidine-3-carboxylic acid at the μM of c0", "result": 43, "unit": "%"}, {"measurement": "activity at 30 µM", "setting": "A2780; Veliparib 30 μM, IMT (3S)-1-[(2R)-2-[4-(2-chloro-4-fluoro-phenyl)-2-oxo-chromen-7-yl]oxypropanoyl]piperidine-3-carboxylic acid at the μM of c0", "result": 6, "unit": "%"}]}
{"smiles": "C[C@@H](Oc1ccc2c(-c3ccc(F)cc3Cl)cc(=O)oc2c1)C(=O)N1CCC[C@H](C(=O)O)C1", "note": "[IMT]", "values": [{"measurement": "Measured residual activity (cellular ATP content)", "setting": "A2780; BAY-876 0 (IMT alone), IMT at the μM of c0, IMT 0.12 µM", "result": 35, "unit": "%"}, {"measurement": "Measured residual activity (cellular ATP content)", "setting": "A2780; BAY-876 0 (IMT alone), IMT at the μM of c0, IMT 0.47 µM", "result": 32, "unit": "%"}, {"measurement": "Measured residual activity (cellular ATP content)", "setting": "A2780; BAY-876 0 (IMT alone), IMT at the μM of c0, IMT 1.88 µM", "result": 29, "unit": "%"}, {"measurement": "Measured residual activity (cellular ATP content)", "setting": "A2780; Olaparib 0 (IMT alone), IMT (3S)-1-[(2R)-2-[4-(2-chloro-4-fluoro-phenyl)-2-oxo-chromen-7-yl]oxypropanoyl]piperidine-3-carboxylic acid at the μM of c0", "result": 30, "unit": "%"}, {"measurement": "Measured residual activity (cellular ATP content)", "setting": "A2780; Rucaparib 0 (IMT alone), IMT (3S)-1-[(2R)-2-[4-(2-chloro-4-fluoro-phenyl)-2-oxo-chromen-7-yl]oxypropanoyl]piperidine-3-carboxylic acid at the μM of c0", "result": 25, "unit": "%"}, {"measurement": "Measured residual activity (cellular ATP content)", "setting": "A2780; Veliparib 0 (IMT alone), IMT (3S)-1-[(2R)-2-[4-(2-chloro-4-fluoro-phenyl)-2-oxo-chromen-7-yl]oxypropanoyl]piperidine-3-carboxylic acid at the μM of c0, IMT 0.2 µM", "result": 29, "unit": "%"}, {"measurement": "Measured residual activity (cellular ATP content)", "setting": "A2780; Veliparib 0 (IMT alone), IMT (3S)-1-[(2R)-2-[4-(2-chloro-4-fluoro-phenyl)-2-oxo-chromen-7-yl]oxypropanoyl]piperidine-3-carboxylic acid at the μM of c0, IMT 7.5 µM", "result": 31, "unit": "%"}, {"measurement": "Measured residual activity (cellular ATP content)", "setting": "[1]; IMT 0.059 µM", "result": 98, "unit": "%"}, {"measurement": "Measured residual activity (cellular ATP content)", "setting": "[1]; IMT 0.234 µM", "result": 94, "unit": "%"}, {"measurement": "Measured residual activity (cellular ATP content)", "setting": "HEC59; IMT 0.005 µM", "result": 99, "unit": "%"}, {"measurement": "Measured residual activity (cellular ATP content)", "setting": "HEC59; IMT 1.25 µM", "result": 39, "unit": "%"}]}
